From PubChem BioAssay (NCI)
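Each compound was tested at five concentrations against cells in 96-well plates for 48 hours. Here, GI50 denotes the concentration required for 50% inhibition of growth. TGI is the concentration that stops growth completely.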

Legend:
Experiment in all cases: inhibition of tumour cell growth, NCI panel, 48 h
[1] = tested on: A549 NSCLC
[2] = tested on: DMS 273 small cell lung
[3] = tested on: EKVX NSCLC
[4] = tested on: HL-60(TB) leukemia
[5] = tested on: LXFL 529 NSCLC
[6] = tested on: NCI-H522 lung
[7] = tested on: SN12C renal
[8] = tested on: SNB-78 CNS
[9] = tested on: HOP-92 NSCLC
[10] = tested on: NCI/ADR-RES ovarian
[11] = tested on: T-47D breast

| Structure (SMILES) | TGI [1] [µM] | TGI [2] [µM] | TGI [3] [µM] | TGI [4] [µM] | TGI [5] [µM] | TGI [6] [µM] | TGI [7] [µM] | TGI [8] [µM] | GI50 [1] [µM] | GI50 [3] [µM] | GI50 [4] [µM] | GI50 [9] [µM] | TGI [9] [µM] | GI50 [6] [µM] | GI50 [10] [µM] | TGI [10] [µM] | GI50 [7] [µM] | GI50 [11] [µM] | TGI [11] [µM] |
| --- | --- | --- | --- | --- | --- | --- | --- | --- | --- | --- | --- | --- | --- | --- | --- | --- | --- | --- | --- |
| O=C(O)c1ccc2c(c1)C(=O)N(c1ccc(S(=O)(=O)c3ccc(N4C(=O)c5ccc(C(=O)O)cc5C4=O)cc3)cc1)C2=O | > 100 | > 100 | > 100 | > 100 | > 100 | > 100 | > 100 | > 100 |  |  |  |  |  |  |  |  |  |  |  |
| COc1ccc2c(c1)C(=Nc1ccc(F)c(Cl)c1)c1c-2c(Nc2ccc(F)c(Cl)c2)nc2ccccc12 | > 100 |  | > 100 | 33.1 |  | > 100 | > 67 |  | > 74 | 89.2 | 14.8 | 33.8 | > 100 | 44.3 | 29.6 | > 72.9 | 33.8 | > 100 | > 100 |
| Cc1ccc(/C=N/NC(=O)c2ccccc2Oc2ccccc2)o1 | > 100 |  | > 100 | > 74.1 |  | > 100 | > 100 |  | 43.5 | 38.8 | 22.8 | 12.5 | > 95.4 | 25.8 | 25.9 | > 100 | 32.9 | 34.9 | > 100 |
| CN1CCN(CCCNC(=O)c2c3c(n4ccccc24)C(=O)c2ncccc2C3=O)CC1 | 5.48 |  | 5.94 | 5.76 |  | 3.86 | 3.61 |  | 1.26 | 1.61 | 2.23 | 3.03 | 13.4 | 1.01 | 12 | 64.6 | 1.42 | 1.88 | 5.28 |
| Nc1ccccc1C#C/C=C\C#Cc1ccccc1C#CCO | > 50 |  | > 50 | > 50 |  | 28.2 | 27.4 |  | 11.2 | 12 | 8.49 | 11.9 | > 50 | 11.8 | 6.17 | 21.4 | 9.46 | 16.9 | > 50 |
| C/C(=N\NC(=O)c1ccncc1)c1sc(-n2nc(-c3ccccc3)cc2-c2ccccc2)nc1C | > 31.6 |  | > 100 | > 31.6 |  | > 80.5 | > 100 |  |  |  |  |  | > 31.6 |  |  | > 100 |  |  | > 31.6 |
| O/N=C(\CC(O)(C(F)(F)F)C(F)(F)F)c1cccs1 | > 10 |  | > 10 | > 10 |  | > 10 | > 10 |  |  |  |  |  | > 10 |  |  | > 10 |  |  | > 10 |
| O=C1C=C(NCCO)c2nccc3c2c1nc1ccccc13 | > 100 |  | 92.2 | > 100 |  | 85 | > 100 |  | 16.4 | 26.5 | 14.2 | > 100 | > 100 | 22.5 | 32 | > 100 | 18.2 | 46.2 | > 100 |
| Cc1ccccc1NC(=O)Cc1nc2ccccc2s1 | 33.6 | 37.6 | 35.1 | 62 | 29.9 | 29.3 | 30.2 | 32.6 |  |  |  |  |  |  |  |  |  |  |  |
| Cn1c(CCCC(=O)O)nc2cc(N(CCCl)CCCl)ccc21 | > 100 |  | > 100 | > 85.3 |  | > 100 | > 100 |  | > 100 | > 100 | > 51.2 | 33.5 | > 93.3 | > 93 | 98.2 | > 100 | 45.1 | 56.2 | > 100 |
| Cc1ccc(S(=O)(=O)OCOS(=O)(=O)c2ccc(C)cc2)cc1 | > 100 | > 100 | > 100 | > 100 | > 100 | > 100 | > 100 |  |  |  |  |  |  |  |  |  |  |  |  |
| Cn1ncc(C#N)c1-c1ccc2c(c1)CN([C@H](CN)Cc1cccc(F)c1)C2=O | > 100 |  | > 92.1 | 47.8 |  | 60.3 | > 100 |  | 5.34 | 5.63 | 22.1 | 0.134 | 1.67 | 17.6 | > 100 | > 100 | 19.7 | 0.0519 | 6.74 |
| O=S1(=O)c2ccccc2N(c2ccccc2)c2nnnn21 | > 100 |  | > 100 | 33.6 |  | 38.9 | 39.1 |  |  |  |  |  | 88.7 |  |  | > 100 |  |  | > 100 |
| CC[C@@H](C)/C=C(C)/C=C/C(=O)c1c(O)c(-c2ccc(OC(=O)[C@@]34CC[C@@](C)(C(=O)O3)C4(C)C)cc2)cn(O)c1=O | > 50 |  | > 50 | 2.4 |  | > 50 | > 50 |  | 4.27 | 2.81 | 0.841 | 2.84 | > 50 | 1.73 | 1.46 | 10 | 2.47 | 1.94 | > 50 |
| Cc1ccc2c(c1)-c1c3c(nn1C)-c1ccccc1SC3O2 (stereo unspecified) | > 100 | > 100 | > 100 | > 100 | > 100 | > 100 |  | > 100 |  |  |  |  | > 100 |  |  |  |  |  |  |
| CCN1CCN(c2nc(C)cc(NCc3cc(Nc4ccnc5cc(Cl)ccc45)ccc3F)n2)CC1 | 13.9 |  | 14 | 4.55 |  | 7.77 | 6.41 |  | 3.54 | 3.03 | 2.22 | 1.21 | 4.07 | 3.02 | 3.07 | 15.1 | 1.94 | 1.73 | 5.07 |
| CC(=O)OC1CCC2OOC1O2 (stereo unspecified) | > 100 | > 100 | > 100 | > 100 |  | > 100 | > 100 | > 100 |  |  |  |  |  |  |  |  |  |  |  |
